pIC50: −log10 of the molar value.
Test system: 485176-168-R4-J1-PDC spheroids with HUVEC/MSC, viability
Experiment: Anticancer human tumor 485176-168-R4-J1-PDC patient-derived pancreatic adenocarcinoma cell line growth inhibition [GQUAD]
Details: for pIC50: curve of first compound; for viability, T/C: stronger effect = lower value; active = viability on the fitted dose curve at most 10% of control; inactive = the rest
Summary of the method: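 Tumor cells were grown as complex spheroids with HUVEC endothelial cells and mesenchymal stem cells as stroma. G-quadruplex stabilizers were combined with targeted agents over half-log dilutions from near the clinical Cmax, or from 10 microM.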

[1] = second compound 0.0316 µM, first compound 0.0316 µM
[2] = second compound 0.0316 µM, first compound 0.1 µM
[3] = second compound 0.0316 µM, first compound 0.316 µM
[4] = second compound 0.0316 µM, first compound 1 µM
[5] = second compound 0.0316 µM, first compound 3.16 µM
[6] = second compound 0.0316 µM, first compound 10 µM
[7] = second compound 0.1 µM, first compound 0.0316 µM
[8] = second compound 0.1 µM, first compound 0.1 µM
[9] = second compound 0.1 µM, first compound 0.316 µM
[10] = second compound 0.1 µM, first compound 1 µM
[11] = second compound 0.1 µM, first compound 3.16 µM
[12] = second compound 0.1 µM, first compound 10 µM
[13] = second compound 0.316 µM, first compound 0.0316 µM
[14] = second compound 0.316 µM, first compound 0.1 µM
[15] = second compound 0.316 µM, first compound 0.316 µM
[16] = second compound 0.316 µM, first compound 1 µM
[17] = second compound 0.316 µM, first compound 3.16 µM
[18] = second compound 0.316 µM, first compound 10 µM
[19] = second compound 1 µM, first compound 0.0316 µM
[20] = second compound 1 µM, first compound 0.1 µM
[21] = second compound 1 µM, first compound 0.316 µM
[22] = second compound 1 µM, first compound 1 µM
[23] = second compound 1 µM, first compound 3.16 µM
[24] = second compound 1 µM, first compound 10 µM
[25] = second compound 3.16 µM, first compound 0.0316 µM
[26] = second compound 3.16 µM, first compound 0.1 µM
[27] = second compound 3.16 µM, first compound 0.316 µM
[28] = second compound 3.16 µM, first compound 1 µM
[29] = second compound 3.16 µM, first compound 3.16 µM
[30] = second compound 3.16 µM, first compound 10 µM
[31] = second compound 10 µM, first compound 0.0316 µM
[32] = second compound 10 µM, first compound 0.1 µM
[33] = second compound 10 µM, first compound 0.316 µM
[34] = second compound 10 µM, first compound 1 µM
[35] = second compound 10 µM, first compound 3.16 µM
[36] = second compound 10 µM, first compound 10 µM
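Also: spheroids exposed to compounds for seven days before readout.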
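For viability, T/C in this document: percent viability relative to DMSO vehicle control wells as 100%.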

CC(C)n1c(=O)n(C)c2cnc3cc(F)c(-c4ccc(OCCCN5CCCCC5)nc4)cc3c21 + Cc1cnc(CNC(=O)c2c(=O)c3ccc(N4CCCN(C)CC4)nc3n3c2sc2ccccc23)cn1
> 7.50: pIC50 (second compound 0.1 µM) | pIC50 (second compound 0.316 µM) | pIC50 (second compound 1 µM) | pIC50 (second compound 3.16 µM) | pIC50 (second compound 10 µM)
< 5.00: pIC50 (second compound 0.0316 µM)
inactive: viability, T/C [1] 65% | viability, T/C [2] 50.2% | viability, T/C [3] 63.1% | viability, T/C [4] 59.2% | viability, T/C [5] 62.2% | viability, T/C [6] 61.2% | viability, T/C [7] 40.2% | viability, T/C [8] 47.4% | viability, T/C [9] 35.6% | viability, T/C [10] 50% | viability, T/C [11] 49.2% | viability, T/C [12] 47.5% | viability, T/C [13] 39.6% | viability, T/C [14] 36% | viability, T/C [15] 30.4% | viability, T/C [16] 33.5% | viability, T/C [17] 34.5% | viability, T/C [18] 41.3% | viability, T/C [19] 27% | viability, T/C [20] 30.2% | viability, T/C [21] 34.2% | viability, T/C [22] 34.5% | viability, T/C [23] 30% | viability, T/C [24] 34.7% | viability, T/C [25] 36.1% | viability, T/C [26] 34.3% | viability, T/C [27] 33.5% | viability, T/C [28] 34.7% | viability, T/C [29] 29.5% | viability, T/C [30] 25.6% | viability, T/C [31] 27% | viability, T/C [32] 27.7% | viability, T/C [33] 28.9% | viability, T/C [34] 28.2% | viability, T/C [35] 25.2% | viability, T/C [36] 24.5%

CC(C)(O)C1CCC(Nc2ccc3ncc(-c4cccc(C(F)(F)F)c4)n3n2)CC1 (stereo not drawn) + Cc1[nH]c2ccc(F)cc2c1-c1nc2c3cccnc3c3ncccc3c2[nH]1
5.59: pIC50 (second compound 1 µM) | pIC50 (second compound 10 µM)
< 5.00: pIC50 (second compound 0.0316 µM) | pIC50 (second compound 0.1 µM)
inactive: viability, T/C [1] 80.2% | viability, T/C [2] 110% | viability, T/C [3] 84.5% | viability, T/C [4] 81.3% | viability, T/C [5] 57.7% | viability, T/C [6] 54.7% | viability, T/C [7] 93.2% | viability, T/C [8] 89.3% | viability, T/C [9] 86.8% | viability, T/C [10] 88.4% | viability, T/C [11] 61% | viability, T/C [12] 59.9% | viability, T/C [13] 93.6% | viability, T/C [14] 100% | viability, T/C [15] 86.8% | viability, T/C [16] 82.3% | viability, T/C [17] 58% | viability, T/C [18] 49.1% | viability, T/C [19] 82.9% | viability, T/C [20] 93.1% | viability, T/C [21] 108% | viability, T/C [22] 77.6% | viability, T/C [23] 47.3% | viability, T/C [24] 40.5% | viability, T/C [25] 76.9% | viability, T/C [26] 83.7% | viability, T/C [27] 88.6% | viability, T/C [28] 78.6% | viability, T/C [29] 46.2% | viability, T/C [30] 33.1% | viability, T/C [31] 92% | viability, T/C [32] 55.6% | viability, T/C [33] 70.3% | viability, T/C [34] 75.3% | viability, T/C [35] 40.3% | viability, T/C [36] 29.5%
5.56: pIC50 (second compound 3.16 µM)
5.07: pIC50 (second compound 0.316 µM)

CC1COCCN1c1cc(-c2ccnn2C)c2ccnc(-c3ccn[nH]3)c2n1 (stereo not drawn) + Cc1[nH]c2ccc(F)cc2c1-c1nc2c3cccnc3c3ncccc3c2[nH]1
7.11: pIC50 (second compound 0.316 µM)
inactive: viability, T/C [1] 71.8% | viability, T/C [2] 34.2% | viability, T/C [3] 19.2% | viability, T/C [4] 10.6% | viability, T/C [5] 10.7% | viability, T/C [6] 11.7% | viability, T/C [7] 60.5% | viability, T/C [8] 48.3% | viability, T/C [9] 16.8% | viability, T/C [10] 10.9% | viability, T/C [11] 11.1% | viability, T/C [12] 13.2% | viability, T/C [13] 67% | viability, T/C [14] 45% | viability, T/C [15] 18.7% | viability, T/C [16] 10.4% | viability, T/C [17] 12.3% | viability, T/C [18] 11.3% | viability, T/C [19] 61.1% | viability, T/C [20] 39.5% | viability, T/C [21] 19.1% | viability, T/C [22] 10.3% | viability, T/C [25] 64.9% | viability, T/C [26] 40.6% | viability, T/C [27] 15.8% | viability, T/C [28] 9.36% | viability, T/C [29] 11.8% | viability, T/C [30] 12% | viability, T/C [31] 70.3% | viability, T/C [32] 40.7% | viability, T/C [33] 18.2% | viability, T/C [34] 10.9% | viability, T/C [35] 11.2% | viability, T/C [36] 11.4%
7.19: pIC50 (second compound 3.16 µM)
7.21: pIC50 (second compound 0.0316 µM)
7.24: pIC50 (second compound 1 µM)
active: viability, T/C [23] 10.6% | viability, T/C [24] 9.82%
7.07: pIC50 (second compound 0.1 µM)
7.16: pIC50 (second compound 10 µM)

CCc1c2c(nc3ccc(O)cc13)-c1cc3c(c(=O)n1C2)COC(=O)[C@]3(O)CC + Cc1[nH]c2ccc(F)cc2c1-c1nc2c3cccnc3c3ncccc3c2[nH]1
8.14: pIC50 (second compound 3.16 µM)
8.39: pIC50 (second compound 10 µM)
8.22: pIC50 (second compound 1 µM)
8.15: pIC50 (second compound 0.316 µM)
inactive: viability, T/C (second compound 0.0316 µM, first compound 0.000999 µM) 76.6% | viability, T/C (second compound 0.0316 µM, first compound 0.00316 µM) 58.1% | viability, T/C (second compound 0.0316 µM, first compound 0.00999 µM) 35.2% | viability, T/C [1] 20.1% | viability, T/C (second compound 0.0316 µM, first compound 0.0999 µM) 17.6% | viability, T/C (second compound 0.1 µM, first compound 0.000999 µM) 78.8% | viability, T/C (second compound 0.1 µM, first compound 0.00316 µM) 62.2% | viability, T/C (second compound 0.1 µM, first compound 0.00999 µM) 35.6% | viability, T/C [7] 27.4% | viability, T/C (second compound 0.1 µM, first compound 0.0999 µM) 10.9% | viability, T/C (second compound 0.316 µM, first compound 0.000999 µM) 83.4% | viability, T/C (second compound 0.316 µM, first compound 0.00316 µM) 71.4% | viability, T/C (second compound 0.316 µM, first compound 0.00999 µM) 38.2% | viability, T/C [13] 22.4% | viability, T/C (second compound 0.316 µM, first compound 0.0999 µM) 15.7% | viability, T/C (second compound 1 µM, first compound 0.000999 µM) 71.4% | viability, T/C (second compound 1 µM, first compound 0.00316 µM) 60.9% | viability, T/C (second compound 1 µM, first compound 0.00999 µM) 41.6% | viability, T/C [19] 23.8% | viability, T/C (second compound 1 µM, first compound 0.0999 µM) 12.5% | viability, T/C (second compound 3.16 µM, first compound 0.000999 µM) 98.3% | viability, T/C (second compound 3.16 µM, first compound 0.00316 µM) 73.2% | viability, T/C (second compound 3.16 µM, first compound 0.00999 µM) 38.1% | viability, T/C [25] 24.4% | viability, T/C (second compound 3.16 µM, first compound 0.0999 µM) 13.3% | viability, T/C (second compound 10 µM, first compound 0.000999 µM) 76.1% | viability, T/C (second compound 10 µM, first compound 0.00316 µM) 50% | viability, T/C (second compound 10 µM, first compound 0.00999 µM) 37.8% | viability, T/C [31] 27.7% | viability, T/C (second compound 10 µM, first compound 0.0999 µM) 10.8%
active: viability, T/C [3] 6.23% | viability, T/C [9] 5.79% | viability, T/C [15] 3.93% | viability, T/C [21] 7.51% | viability, T/C [27] 5.95% | viability, T/C [33] 6.05%
8.33: pIC50 (second compound 0.0316 µM)
8.25: pIC50 (second compound 0.1 µM)
